Test results taken from patent US10022308B2, “Wipe and methods for improving skin health” (Kimberly-Clark Worldwide, Inc., priority 2003, dated 2018).

Columns and labels:
[1] = system: P. aeruginosa (ATCC #27853); experiment: Adhesion assay for P. aeruginosa on synthetic skin substrate; format: cell-based, Pseudomonas aeruginosa; conditions: 50 μl of 10% botanical stock in TSB + 50 μl bacteria, 3 h room temperature, VITRO-SKIN, AlamarBlue
Description: (§1) The protocols for testing the ability of botanical compounds to elicit any of these desired effects are set forth in the Examples. In general, the ability of a botanical compound to affect the adherence of an organism to skin is determined by comparing the adherence of the organism to skin in the presence of the botanical compound, to the adherence of the organism to skin in the absence of the botanical compound. If the amount of adherence in the presence of the botanical compound is 150% or greater than the amount of adherence in the absence of the botanical compound, then the botanical compound is an adherence promoter for that organism. If the amount of adherence in the presence of the botanical compound is 50% or less than the amount of adherence in the absence of the botanical compound, then the botanical compound is an anti-adherent for that organism.
(§2) Each of the botanical compounds listed in Table 1 was screened to measure the effect of the compound on the adhesion of P. mirabilis, S. epidermidis, or P. aeruginosa to the skin. […]
(§3) The next day, the optical density (650 nm) of the TSB culture was read. […] AlamarBlue® levels were read (emission levels read at 590 nm) in an Ascent plate reader (excitation level of 544 nm) at 1 and 2 hours. When not being read, the plate was incubated at 37° C. with a lid. […]

[2] = system: Lactobacillus acidophilus (ATCC #:314); experiment: Adhesion assay for Lactobacillus acidophilus on synthetic skin substrate; format: cell-based; conditions: 50 μl of 10% botanical stock in TSB + 50 μl bacteria, 3 h at 33° C. or 37° C., VITRO-SKIN, AlamarBlue
Description: as §1, with “If the amount of adherence in the presence of the botanical compound is 50% or less than the amount of adherence in the absence of the botanical compound, then the botanical compound is an anti-adherent for that organism.” left out
(§4) Results are given in Table 1, which gives the percent adherence to the skin of P. mirabilis, S. epidermidis, P. aeruginosa, L. acidophilus, and C. albicans for the various botanical compound samples, relative to the control. The percentage is based on the number of cells that adhered to the skin for the botanical samples as compared to the number of cells that adhered to the skin in the control, as determined by the AlamarBlue® levels. […]
The next day, the optical density (650 nm) of the Lactobacilli broth culture was read. […] AlamarBlue® levels were read (emission levels read at 590 nm) in an Ascent plate reader (excitation level of 544 nm) at 2 and 3 hours. […]

[3] = system: C. albicans (ATCC #10231); experiment: Adhesion assay for Candida albicans on synthetic skin substrate; format: cell-based; conditions: 50 μl of 10% botanical stock in TSB + 50 μl yeast, 3 h at 33° C., VITRO-SKIN, AlamarBlue
Description: as §1, §4
The next day, the optical density (650 nm) of the SDB culture was read. […]

[4] = system: S. epidermidis (ATCC #12228); experiment: Adhesion assay for S. epidermidis on synthetic skin substrate; format: cell-based, Staphylococcus epidermidis; conditions: 50 μl of 10% botanical stock in TSB + 50 μl bacteria, 3 h room temperature, VITRO-SKIN, AlamarBlue
Description: as §1, §2, §3

[5] = system: P. mirabilis (ATCC #29906); experiment: Adhesion assay for P. mirabilis on synthetic skin substrate; format: cell-based, Proteus mirabilis; conditions: 50 μl of 10% botanical stock in TSB + 50 μl bacteria, 3 h room temperature, VITRO-SKIN, AlamarBlue; >100% more cells adhered than control
Description: as §1, §2, §3

CCCC(O)CO (centres unmarked) [Hydrolite-5]
percent adherence to the skin of P. aeruginosa (PA) relative to the control [1]: 5.1%
percent adherence to the skin of L. acidophilus (LA) relative to the control [2]: 169.66%
percent adherence to the skin of C. albicans (CA) relative to the control [3]: 3.9%
percent adherence to the skin of S. epidermidis (SE) relative to the control [4]: 141.5%
percent adherence to the skin of P. mirabilis (PM) relative to the control [5]: 9.2%
